Reference: patent US20220040304A1, “A COMPOSITION FOR CANCER CELL DEATH AND ITS USE” (Industry-University Cooperation Foundation Hanyang …, priority 2018, published 2022)
Values joined by “and” are separate entries in the source; they are usually repeats but may differ in a detail not shown here. Equal entries are not always repeated.

Assays:
[1] = Fluorescence assay of purified proteins (excitation/emission); assay type: physicochemical; conditions: protein 10 μM in 1×PBS
Procedure: 100 μL of buffer (1×PBS) containing the protein purified in Example 1 (final concentration: 10 μM) was dispensed into a 96-well plate (SPL Cell Culture Plate, 96 well (SPL, Cat #32096)). Afterward, a fluorescence signal level was detected by fluorescence assay using a Thermo Scientific™ Varioskan™ Flash Multimode Reader.

MCF-10A = assay: Cell death with Co-h substrate by cell type (SYTOX Green or EthD-1/DAPI); assay type: cell-based, human; conditions: protein 10 μM, Co-h 150 μM for 5 minutes
Procedure: (§1) The cells were seeded at 5×10^5 cells/mL in 96-well plates (SPL Cell Culture Plate, 96 well (SPL, Cat #30096)), and cultured at 37° C. for 24 hours (overnight). After the culture for 24 hours, the cells were washed with FBS & phenol red-free media, and 100 μL of FBS & phenol red-free media containing a purified protein (final concentration: 10 μM) was added, followed by reaction at 37° C. for 24 hours.
(§2) Subsequently, the cells were washed with FBS & phenol red-free media, and 100 μL of FBS & phenol red-free media was added. 100 μL of FBS & Phenol red-free media (RPMI) containing a Co-h substrate solution (final concentration: 150 μM) was added, followed by reaction at 37° C. for 5 minutes.
(§3) After the reaction, 50 μL of SYTOX Green (final concentration: 261 nM) or 90 μL of ethidium homodimer (EthD-1) (final concentration 1×), which stains DNA of dead cells, was added, followed by reaction at 37° C. for 30 minutes. 10 μL of DAPI staining DNA of live cells was added, followed by reaction for 5 minutes. Cell death was confirmed by observing KillerRed, SYTOX Green, MiniSOG, EthD-1 and DAPI fluorescence using a confocal microscope.

MCF-7 = assay: as above; assay type: cell-based, human; conditions: MCF-7, protein 10 μM, Co-h 150 μM for 5 minutes
Procedure: as §1, §2, §3

BT-474 = assay: as above; assay type: cell-based, human; conditions: BT-474, protein 10 μM, Co-h 150 μM for 5 minutes
Procedure: as §1, §2, §3

SK-BR-3 = assay: as above; assay type: cell-based, human; conditions: SK-BR-3, protein 10 μM, Co-h 150 μM for 5 minutes
Procedure: as §1, §2, §3

MDA-MB-435 = assay: as above; assay type: cell-based, human; conditions: MDA-MB-435, protein 10 μM, Co-h 150 μM for 5 minutes
Procedure: as §1, §2, §3

MDA-MB-231 = assay: as above; assay type: cell-based, human; conditions: MDA-MB-231, protein 10 μM, Co-h 150 μM for 5 minutes
Procedure: as §1, §2, §3

MS: first protein MiniSOG, ROS-generating protein (singlet oxygen), expressed from pRSET-MiniSOG, 13 kDa [reference compound]
emission wavelength (fluorescence) [1]: 500 nm and 528 nm | excitation wavelength [1]: 448 nm

RLuc8-MS: fusion protein of RLuc8 and MiniSOG without lead peptide, 53 kDa
cell death with Co-h substrate (MCF-10A): none of the six breast cancer cell lines were killed | cell death with Co-h substrate (MCF-7): none of the six breast cancer cell lines were killed | cell death with Co-h substrate (BT-474): none of the six breast cancer cell lines were killed | cell death with Co-h substrate (SK-BR-3): none of the six breast cancer cell lines were killed | cell death with Co-h substrate (MDA-MB-435): none of the six breast cancer cell lines were killed | cell death with Co-h substrate (MDA-MB-231): none of the six breast cancer cell lines were killed
